Measurements taken from patent US9096585B2 (Icahn School of Medicine at Mount Sinai, priority 2010, dated 2015).
pIC50: −log10 of the molar value. “Also recorded” adds a separate entry of the source. Where two headings read alike, the source gives them in different places.

What was measured:
[1] = tested on: A549 cells; settings: human, 24 h
[2] = tested on: A549 cells; assay: Cell viability (cytotoxicity) in A549 cells; settings: A549
[3] = tested on: Sindbis virus; assay: Sindbis virus replication in A549 cells; format: cell-based; settings: 10 μM A3 or less
[4] = tested on: influenza A/WSN/33 virus; assay: Plaque-reduction assays with influenza A/WSN/33 virus in cell lines of different species, with or without pyrimidine supplements
[5] = tested on: influenza viral proteins (NP, M1, and M2); format: cell-based, influenza A/WSN/33 virus; settings: A549; A/WSN/33; in the presence of A3
[6] = tested on: HIV-1 (NL4-3); assay: microbe, parasite or virus in culture; format: cell-based
[7] = tested on: Vesicular Stomatitis virus; format: cell-based; settings: A549
[8] = tested on: influenza virus; format: cell-based; settings: primary screen
[9] = in vitro; settings: mouse
[10] = tested on: influenza virus polymerase (PB1, PB2, PA, NP); format: cell-based, influenza A/WSN/33 virus; settings: for inhibition of viral RNA polymerase activity: mini-genome reporter construct
[11] = molecular target: Human dihydroorotate dehydrogenase (DHODH) (Homo sapiens, UniProt Q02127); assay: In vitro colorimetric DHODH assay (DCIP reduction); settings: final concentration of 10 μM; 60 mins
[12] = tested on: human adenovirus 5 (hAd5); format: cell-based; settings: 10 μM A3 or less
[13] = tested on: Hepatitis C virus; format: cell-based; settings: 10 μM A3 or less
[14] = in vitro; settings: human
[15] = tested on: Vaccinia Virus (NYVAC); format: cell-based; settings: 10 μM A3 or less
[16] = tested on: influenza virus; assay: Viral entry assay, influenza virus; format: cell-based; settings: viral entry assays
[17] = tested on: cellular gene expression (Renilla luciferase)
[18] = tested on: influenza A/PR/8/34 virus v-, c-, and mRNA (NA segment); settings: concentration of 2 μM
[19] = Cell viability (cytotoxicity) in A549 cells; settings: human, A549 cells
[20] = tested on: cellular 5S rRNA; settings: concentration of 2 μM
[21] = tested on: Sendai Virus 52; assay: Sendai virus replication in A549 cells; format: cell-based; settings: A3 10 μM, 24 h
[22] = in vitro; settings: human; remark: listed apart in the source
[23] = tested on: Newcastle Disease virus; format: cell-based; settings: concentration of 11.2 μM; NDV/B1; A549
[24] = tested on: VSV; format: cell-based, Vesicular Stomatitis virus; settings: viral entry assays
[25] = tested on: retrovirus MLV; assay: Viral entry assay, retrovirus MLV; format: cell-based; settings: viral entry assays
[26] = read-out: CC50 (A549), 24 hour period, Table 3

Human dihydroorotate dehydrogenase (DHODH), sequence (Q02127 whole entry): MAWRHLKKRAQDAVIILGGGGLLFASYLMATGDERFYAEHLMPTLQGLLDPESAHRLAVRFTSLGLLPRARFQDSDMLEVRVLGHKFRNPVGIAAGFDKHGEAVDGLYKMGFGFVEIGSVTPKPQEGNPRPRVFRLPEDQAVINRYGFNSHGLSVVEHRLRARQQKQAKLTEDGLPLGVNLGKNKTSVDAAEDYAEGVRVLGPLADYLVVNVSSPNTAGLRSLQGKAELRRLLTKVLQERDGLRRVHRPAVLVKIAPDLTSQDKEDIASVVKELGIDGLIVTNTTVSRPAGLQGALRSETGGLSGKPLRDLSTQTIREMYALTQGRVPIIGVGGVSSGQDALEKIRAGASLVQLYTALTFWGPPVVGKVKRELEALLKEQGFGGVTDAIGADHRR

CCN(CC)S(=O)(=O)c1ccc(-c2nnc(SCC(=O)N3CCCC3)o2)cc1 [Compound A3-1, N,N-diethyl-4-(5-(2-oxo-2-(pyrrolidin-1-yl)ethylthio)-1,3,4-oxadiazol-2-yl)benzenesulfonamide]
CC10 (A549) [1]: 17.3 µM

CCN(CC)C(=O)CSc1nnc(-c2ccc3[nH]c(C)c(C)c3c2)o1 [Compound A3-2, 2-(5-(2,3-dimethyl-1H-indol-5-yl)-1,3,4-oxadiazol-2-ylthio)-N,N-diethylacetamide]
CC10 (A549) [1]: 29 µM

Cc1[nH]c2ccc(-c3nnc(SCC(=O)N4CCc5ccccc54)o3)cc2c1C [Compound A3-3, 2-(5-(2,3-dimethyl-1H-indol-5-yl)-1,3,4-oxadiazol-2-ylthio)-1-(indolin-1-yl)ethanone]
CC10 (A549) [1]: 8.5 µM | CC50 [2, 26]: 65 µM

Cc1[nH]c2ccc(-c3nnc(SCC(=O)N(C(C)C)C(C)C)o3)cc2c1C [Compound A3-4, 2-(5-(2,3-dimethyl-1H-indol-5-yl)-1,3,4-oxadiazol-2-ylthio)-N,N-diisopropylacetamide]
CC10 (A549) [1]: 10.7 µM

Cc1[nH]c2ccc(-c3nnc(SCC(=O)N4CCOCC4)o3)cc2c1C [Compound A3-5, 2-(5-(2,3-dimethyl-1H-indol-5-yl)-1,3,4-oxadiazol-2-ylthio)-1-morpholinoethanone]
CC10 (A549) [1]: 10.2 µM

Cc1[nH]c2ccc(-c3nnc(SCC(=O)N4CCCCCC4)o3)cc2c1C [Compound A3-6, 1-(azepan-1-yl)-2-(5-(2,3-dimethyl-1H-indol-5-yl)-1,3,4-oxadiazol-2-ylthio)ethanone]
CC10 (A549) [1]: 18.2 µM

O=C(CSc1nnc(-c2cc3ccccc3[nH]2)o1)N1CCCC1 [Compound A3-7, 2-(5-(1H-indol-2-yl)-1,3,4-oxadiazol-2-ylthio)-1-(pyrrolidin-1-yl)ethanone]
CC10 (A549) [1]: 15.2 µM

COc1ccc(-c2nnc(SCC(=O)N3CCCC3)o2)cc1 [Compound A3-8, 2-(5-(4-methoxyphenyl)-1,3,4-oxadiazol-2-ylthio)-1-(pyrrolidin-1-yl)ethanone]
CC10 (A549) [1]: 11.8 µM

O=C(CSc1nnc(-c2cc3ccccc3o2)o1)N1CCCC1 [Compound A3-9, 2-(5-(benzofuran-2-yl)-1,3,4-oxadiazol-2-ylthio)-1-(pyrrolidin-1-yl)ethanone]
CC10 (A549) [1]: 10.9 µM

O=C(CSc1nnc(-c2cccnc2)o1)N1CCCC1 [Compound A3-11, 2-(5-(pyridin-3-yl)-1,3,4-oxadiazol-2-ylthio)-1-(pyrrolidin-1-yl)ethanone]
CC10 (A549) [1]: 32.6 µM

O=C(CSc1nnc(-c2ccncc2)o1)N1CCCC1 [Compound A3-12, 2-(5-(pyridin-4-yl)-1,3,4-oxadiazol-2-ylthio)-1-(pyrrolidin-1-yl)ethanone]
CC10 (A549) [1]: 11.5 µM

Cc1[nH]c2ccc(-c3nnc(SCC(=O)N4CCCC4)o3)cc2c1C [Compound A3]
inhibition of Sindbis virus [3]: 2 logs | inhibition of viral replication [4]: strong inhibition; also recorded: complete inhibition | inhibition of viral replication ([4]; baby hamster kidney (BHK) cells and pig kidney (PK-15) cells, A3 10 μM): partially inhibited | effect of orotic acid on the inhibition by A3 ([4]; both A549 and MDCK cells): reverse the inhibition | effect on viral replication ([4]; chicken fibroblast (DF-1) cells, A3 10 μM): no effect | levels of viral proteins [5]: reduced levels of viral proteins | sensitivity of HIV-1 ([6]; 10 μM A3 or less): sensitive | pIC50 ([6]; Human immunodeficiency virus 1, NL43, TZM-bl, 48 h, read-out: IC50 against HIV-1 (NL4-3)): 6.69 | time of addition at which compound remains active ([6]; time-of-addition, TZM-bl, HIV-1 MOI=0.1, A3 at 1 μM): ≤ 12 h after infection | titer of vesicular stomatitis virus decreased ([7]; 10 μM A3 or less): 5 logs | luminescence signal of influenza virus inducible firefly luciferase reporter [8]: no luminescence detectable | CC50 [9]: > 100 µM | inhibition of influenza virus polymerase function ([10]; compared with the DMSO control, A3 at its CC10): 98% | inhibition of viral RNA polymerase activity ([10]; at 10 μM): up to 99% | potency relative to ribavirin ([10]; same degree of inhibition by 2 μM A3 as with 100 μM ribavirin): 50 times | DHODH activity in vitro [11]: Inhibits DHODH Activity | sensitivity of adenovirus [12]: sensitive | inhibition of hepatitis C virus [13]: 2 logs | CC50 [14]: > 100 µM | sensitivity of vaccinia virus [15]: sensitive | viral entry of influenza virus [16]: did not inhibit viral entry | CC10 (A549) [1]: 38 µM | cellular gene expression as monitored by Renilla luciferase activity ([17]; A3 at its CC10): without affecting cellular gene expression | overall host cell replication machinery (renilla luciferase control plasmid expression) ([17]; all A3 concentrations (0.4-30 μM)): not affected | production of all three viral RNA species (v-, c-, and mRNA) [18]: fully inhibit | CC50 at 24 h [19]: 268 µM | levels of cellular 5S rRNA [20]: without decreasing levels | inhibition of Sendai virus (SV52) [21]: 3 logs

CN(Cc1ccccc1)c1nc(-c2ccc([N+](=O)[O-])cc2)cs1 [Compound A35-1]
CC10 (A549) [1]: 10.8 µM

CN(c1nc(-c2ccccc2)cs1)C1CCS(=O)(=O)C1 (stereo not shown) [Compound A35-2]
CC10 (A549) [1]: 12.2 µM

Nc1nc(-c2ccc(Cl)cc2)cs1 [Compound A35-3]
CC10 (A549) [1]: 11.4 µM

CN(c1ccc(O)cc1)c1nc(-c2ccc(Cl)cc2)cs1 [Compound A35-4]
CC10 (A549) [1]: 6 µM | CC50 [2, 26]: 30 µM

CN(C)c1nc(-c2ccc(Br)cc2)cs1 [Compound A35-5]
CC10 (A549) [1]: 17.8 µM | CC50 at 24 h [22]: 242 µM

CN(c1nc(-c2ccc(Br)cc2)cs1)C1CCS(=O)(=O)C1 (stereo not shown) [Compound A35]
inhibition of NDV [23]: less significant inhibition | inhibition of VSV ([7]; concentration of 11.2 μM): less significant inhibition | viral entry of influenza virus [16]: did not affect the entry step | CC10 (A549) [1]: 11.2 µM | CC50 at 24 h [22]: 110 µM

COc1cc2c(O)c3c(c(-c4ccc5c(c4)OCO5)c2cc1OC)C(=O)OC3 [Compound C2]
entry of VSV [24]: inhibited | entry of the retrovirus MLV [25]: unaffected | viral entry of influenza virus [16]: inhibited | CC50 [2]: 131 µM

Cc1oncc1C(=O)Nc1ccc(C(F)(F)F)cc1 [Leflunomide, reference compound]
effect on influenza virus replication ([4]; A549 and MDCK cells, concentration of 10 μM): No inhibition

NC(=O)c1ncn([C@@H]2O[C@H](CO)[C@@H](O)[C@H]2O)n1 [ribavirin, reference compound]
inhibition of viral RNA polymerase activity ([10]; at 100 μM): 90%
